In general, Cmax refers to the peak of the concentration-time curve. What is called bioavailability is dose-corrected exposure relative to a reference, in per cent. What is called clearance is a measure of how efficiently the substance is removed, as volume per time.

The results in this text go back to ChEMBL document CHEMBL1154001, “Discovery of potent and selective DP1 receptor antagonists in the azaindole series” (Bioorg Med Chem Lett, 2009).

The nature of data set [1]: Cmax in rat at 30 mg/kg. Format: ADME, organism-based. On the set-up: dose 30 mg/kg. Conditions: in vivo.
The nature of data set [2]: Terminal half life in cynomolgus monkey at 10 mg/kg. Format: ADME, organism-based, Macaca fascicularis. Details: dose 10 mg/kg. Conditions: in vivo, read-out: beta t1/2 (converted).
The nature of data set [3]: Bioavailability in rat. The data set is classed as ADME, organism-based. Conditions: in vivo.
The nature of data set [4]: Volume of distribution at steady state in rat at 10 mg/kg. The data set is classed as ADME, organism-based. On the set-up: dose 10 mg/kg. The note with it: in vivo, read-out: Vdss.
Data set [5] can be described thus: Volume of distribution at steady state in cynomolgus monkey at 2 mg/kg. The data set is classed as ADME, organism-based, Macaca fascicularis. Details: dose 2 mg/kg. Conditions: in vivo, read-out: Vdss.
Data set [6] can be described thus: Cmax in cynomolgus monkey at 4 mg/kg. The data set is classed as ADME, organism-based, Macaca fascicularis. Details: dose 4 mg/kg. Conditions: in vivo.
Data set [7] can be described thus: Volume of distribution at steady state in Beagle dog at 2 mg/kg. On the set-up: dose 2 mg/kg. The note with it: in vivo, read-out: Vdss. Format: ADME, organism-based, Canis lupus familiaris.
The nature of data set [8]: Bioavailability in Beagle dog. Format: ADME, organism-based, Canis lupus familiaris. The note with it: in vivo.
The nature of data set [9]: Plasma clearance in squirrel monkey at 5 mg/kg. The data set is classed as ADME, organism-based. Details: dose 5 mg/kg. The note with it: saimiri.
A short description of data set [10]: Bioavailability in squirrel monkey. Conditions: saimiri, in vivo. The data set is classed as ADME, organism-based.
The nature of data set [11]: Cmax in Beagle dog at 10 mg/kg. The data set is classed as ADME, organism-based, Canis lupus familiaris. Details: dose 10 mg/kg. The note with it: in vivo.
The nature of data set [12]: Terminal half life in Beagle dog at 10 mg/kg. The data set is classed as ADME, organism-based, Canis lupus familiaris. Details: dose 10 mg/kg. Conditions: in vivo, read-out: beta t1/2 (converted).
Data set [13] is described as follows: Terminal half life in squirrel monkey at 10 mg/kg. The note with it: saimiri, in vivo, read-out: beta t1/2 (converted). On the set-up: dose 10 mg/kg. The data set is classed as ADME, organism-based.
Data set [14] is described as follows: Plasma clearance in cynomolgus monkey at 2 mg/kg. The data set is classed as ADME, organism-based, Macaca fascicularis. Details: dose 2 mg/kg.
Data set [15] is described as follows: Volume of distribution at steady state in squirrel monkey at 5 mg/kg. The data set is classed as ADME, organism-based. Details: dose 5 mg/kg. The note with it: saimiri, in vivo, read-out: Vdss.
Data set [16] in a line: Bioavailability in cynomolgus monkey. The data set is classed as ADME, organism-based, Macaca fascicularis. The note with it: in vivo.
A short description of data set [17]: Terminal half life in rat at 10 mg/kg. Conditions: in vivo, read-out: beta t1/2 (converted). The data set is classed as ADME, organism-based. Details: dose 10 mg/kg.
A short description of data set [18]: Plasma clearance in Beagle dog at 2 mg/kg. The data set is classed as ADME, organism-based, Canis lupus familiaris. Details: dose 2 mg/kg.
The nature of data set [19]: Cmax in squirrel monkey at 10 mg/kg. The data set is classed as ADME, organism-based. Details: dose 10 mg/kg. Conditions: saimiri, in vivo.
The nature of data set [20]: Plasma clearance in rat at 10 mg/kg. Format: ADME, organism-based. On the set-up: dose 10 mg/kg.

Consider `CC(C)c1nccc2c1c(Sc1ccc(Cl)c(Cl)c1)c1n2CC[C@@H]1CC(=O)O`, for which the highest concentration (Cmax) in data set [1] stood at 28 µM; in [6] it was 0.06 µM; in data set [11] it was 9 µM; in data set [19], 8.5 µM. Besides, the half-life in data set [2] is 13.8 h; in [12] it was 8.6 h; in data set [13], 1.4 h; in data set [17], 8.3 h. Also, the bioavailability stood at 53% in [3], 23% in [8], 43% in [10] and 4% in [16]. Further, the Vd in data set [4] turned out to be 0.47 L/kg; in [5] it was 1.2 L/kg; in data set [7], 1.2 L/kg; in data set [15] it was 0.78 L/kg. The clearance was found to be 7.3 mL/min/kg in data set [9], 21 mL/min/kg in [14], 4 mL/min/kg in data set [18] and 1.6 mL/min/kg in data set [20].
